Test results reported in patent US20140235545A1, “The use of HCV immunogenic peptide or a derivative thereof in the prevention or treatment of arthritis” (priority 2011, published 2014).
No end group written: not given here.

Test system: adjuvant arthritis (Freund's complete adjuvant)
Test: Protective effect of peptide A on adjuvant arthritis in rats
Assay type: in vivo, SD rats
Details: for ankle joint swelling value: X±SD; for ankle joint swelling value / Lesion scoring ( X ± SD), joint lesion severity: n=10; for inhibition rate of ankle joint swelling: vs model group; for Lesion scoring ( X ± SD), joint lesion severity: 32nd day, left rear ankle joint histopathology, lower score = milder
Description: SPF-level SD rats, each weighting 180 g-220 g, with male and female each in half, provided by Experimental Animal Center of Chinese Academy of Military Medical.
Peptide A (which was prepared with the same procedure as in Embodiment 1). It was to be dissolved in physiological saline when used.
SD rats, with male and female each in half, were randomly divided into five groups with 10 rats in each group, respectively were model group (employing physiological saline and Freund's complete adjuvant); control group (employing the same volume of physiological saline as the model group); peptide A high, medium and low dose groups (employing Freund's complete adjuvant and peptide A, wherein each group was given different doses of peptide A, respectively were 174 μg/kg·d, 87 μg/kg·d and 43.5 μg/kg·d, peptide A was dissolved in physiological saline to form peptide A solution with desired concentration). Peptide A solution in each dose was administered by subcutaneous injection, 0.1 ml of peptide A solution per 100 g body weight of rats. The control group employed the same amount of physiological saline as the peptide A solution (0.1 ml of physiological saline per 100 g body weight of rats).
Each group rats were administered according to the following manner. These rats were normally fed every day during the administration.
On the 1st day (including this day), except the control group, for rats of other groups (the model group and the peptide A high, medium and low dose groups), 0.5 ml of Freund's complete adjuvant was subcutaneously injected into plantar skin of right rear foot of every rat. Then, they were subcutaneously injected with 0.05 ml of Freund's complete adjuvant for one time every other day, a total of 15 times.
From the 2nd day (including this day), the rats of peptide A high, medium and low dose groups each were administered with corresponding the dose of peptide A. Then, they were subcutaneously injected with the dose the amount of peptide A for one time every other day, a total of 15 times. At the same time, the rats of the control group and the model group were subcutaneously injected the same amount of physiological saline as that of the peptide A for the high, medium and low dose groups for one time every other day, a total of 15 times.
Measurement for the experimental results was conducted as follows. Firstly, before administration to rats of each group, left rear ankle circumference […] of each rat was measured by a flexible rule as a base value, and then circumference of left rear ankle with inflammation of each rat was measured at the 4th, 8th, 12th, 16th, 20th, 24th, 28th, and 32nd day, respectively. Swelling value obtained by circumference after inflammation minus circumference before inflammation was used to observe changes of primary and secondary inflammation of Freund's complete adjuvant-induced rats.
Secondly, at the 32nd day, rats of each group were killed, and their left rear foot ankle joints ware quickly taken out, fixed in 10% formalin and then embedded in paraffin after decalcification, sectioned and stained with HE. The proliferation of synovial tissue, degeneration of covering epithelial cells (synovial cells), congestion of interstitial substance, inflammatory cell infiltration, damage or fibrosis of arthrodial cartilage, and inflammatory cell infiltration or fibrosis of subcutaneous tissue around the joint, were observed. According to severity of joint lesions, the lesions were scored as “1 score (few or mild lesion)”, “2 scores (moderate or medium lesion)”, “3 scores (large or severe lesion)”, and “4 scores (very severe lesion)”. Very mild lesion was scored as “0.5”, and no lesion tissue was scored as “0”. Accumulate all scores to obtain a total score for one group, and then calculate average score ( X±SD) for each animal in each group. The lower score indicates the milder grade of the lesion. […]

[1] = high dose 174 μg/kg·d s.c., the 4th day
[2] = high dose 174 μg/kg·d s.c., the 8th day
[3] = high dose 174 μg/kg·d s.c., the 12th day
[4] = high dose 174 μg/kg·d s.c., the 16th day
[5] = high dose 174 μg/kg·d s.c., the 20th day
[6] = high dose 174 μg/kg·d s.c., the 24th day
[7] = high dose 174 μg/kg·d s.c., the 28th day
[8] = high dose 174 μg/kg·d s.c., the 32nd day
[9] = low dose 43.5 μg/kg·d s.c., the 4th day
[10] = low dose 43.5 μg/kg·d s.c., the 8th day
[11] = low dose 43.5 μg/kg·d s.c., the 12th day
[12] = low dose 43.5 μg/kg·d s.c., the 16th day
[13] = low dose 43.5 μg/kg·d s.c., the 20th day
[14] = low dose 43.5 μg/kg·d s.c., the 24th day
[15] = low dose 43.5 μg/kg·d s.c., the 28th day
[16] = low dose 43.5 μg/kg·d s.c., the 32nd day
[17] = medium dose 87 μg/kg·d s.c., the 4th day
[18] = medium dose 87 μg/kg·d s.c., the 8th day
[19] = medium dose 87 μg/kg·d s.c., the 12th day
[20] = medium dose 87 μg/kg·d s.c., the 16th day
[21] = medium dose 87 μg/kg·d s.c., the 20th day
[22] = medium dose 87 μg/kg·d s.c., the 24th day
[23] = medium dose 87 μg/kg·d s.c., the 28th day
[24] = medium dose 87 μg/kg·d s.c., the 32nd day

GQTYTSG [Peptide A]
arthritis lesion (histopathology) after administration (all dose groups, effect in descending order high, medium, low): reduced in different degrees | ankle joint swelling value [1]: 8.5 ± 1.5 mm | inhibition rate of ankle joint swelling [1]: (17.5%) | ankle joint swelling value [2]: 10.2 ± 1.7 mm | inhibition rate of ankle joint swelling [2]: (28.2%) | ankle joint swelling value [3]: 10.8 ± 1.5 mm | inhibition rate of ankle joint swelling [3]: (31.6%) | ankle joint swelling value [4]: 11.1 ± 1.6 mm | inhibition rate of ankle joint swelling [4]: (39.7%) | ankle joint swelling value [5]: 11.4 ± 1.8 mm | inhibition rate of ankle joint swelling [5]: (37.4%) | ankle joint swelling value [6]: 10.8 ± 1.7 mm | inhibition rate of ankle joint swelling [6]: (38.3%) | ankle joint swelling value [7]: 10.4 ± 1.8 mm | inhibition rate of ankle joint swelling [7]: (37.7%) | ankle joint swelling value [8]: 9.5 ± 1.9 mm | inhibition rate of ankle joint swelling [8]: (39.9%) | Lesion scoring ( X ± SD), joint lesion severity (high dose group (174 μg/kg·d s.c.)): 3.60 ± 1.26 | inhibition rate to the joint swelling (high dose group (174 μg/kg·d)): ~40% | joint swelling compared with rats of the model group (high, medium and low dose groups, observation): significantly reduced joint swelling | skin ulcer symptom (high, medium and low dose groups, part of model rats had skin ulcers on the 24th day): did not have skin ulcer symptom | ankle joint swelling value [9]: 9.3 ± 1.4 mm | inhibition rate of ankle joint swelling [9]: (9.7%) | ankle joint swelling value [10]: 13.5 ± 2.1 mm | inhibition rate of ankle joint swelling [10]: (4.9%) | ankle joint swelling value [11]: 13.9 ± 1.6 mm | inhibition rate of ankle joint swelling [11]: (12.0%) | ankle joint swelling value [12]: 14.2 ± 1.7 mm | inhibition rate of ankle joint swelling [12]: (22.8%) | ankle joint swelling value [13]: 14.6 ± 2.3 mm | inhibition rate of ankle joint swelling [13]: (19.8%) | ankle joint swelling value [14]: 14.2 ± 1.4 mm | inhibition rate of ankle joint swelling [14]: (18.8%) | ankle joint swelling value [15]: 14.0 ± 1.8 mm | inhibition rate of ankle joint swelling [15]: (16.2%) | ankle joint swelling value [16]: 13.8 ± 1.5 mm | inhibition rate of ankle joint swelling [16]: (12.6%) | Lesion scoring ( X ± SD), joint lesion severity (low dose group (43.5 μg/kg·d s.c.)): 4.10 ± 0.99 | ankle joint swelling value [17]: 8.9 ± 1.6 mm | inhibition rate of ankle joint swelling [17]: (13.6%) | ankle joint swelling value [18]: 11.9 ± 1.8 mm | inhibition rate of ankle joint swelling [18]: (16.2%) | ankle joint swelling value [19]: 12.1 ± 2.3 mm | inhibition rate of ankle joint swelling [19]: (23.4%) | ankle joint swelling value [20]: 12.9 ± 1.8 mm | inhibition rate of ankle joint swelling [20]: (29.9%) | ankle joint swelling value [21]: 13.2 ± 1.4 mm | inhibition rate of ankle joint swelling [21]: (27.5%) | ankle joint swelling value [22]: 13.0 ± 1.8 mm | inhibition rate of ankle joint swelling [22]: (25.7%) | ankle joint swelling value [23]: 12.8 ± 1.6 mm | inhibition rate of ankle joint swelling [23]: (23.4%) | ankle joint swelling value [24]: 12.5 ± 1.8 mm | inhibition rate of ankle joint swelling [24]: (20.9%) | Lesion scoring ( X ± SD), joint lesion severity (medium dose group (87 μg/kg·d s.c.)): 4.00 ± 0.67
